The text below walks through data of patent publication US9115127B2 (AMGEN INC., priority 2010, dated 2015).

T1 sequence (Q9UM73 1058-1620): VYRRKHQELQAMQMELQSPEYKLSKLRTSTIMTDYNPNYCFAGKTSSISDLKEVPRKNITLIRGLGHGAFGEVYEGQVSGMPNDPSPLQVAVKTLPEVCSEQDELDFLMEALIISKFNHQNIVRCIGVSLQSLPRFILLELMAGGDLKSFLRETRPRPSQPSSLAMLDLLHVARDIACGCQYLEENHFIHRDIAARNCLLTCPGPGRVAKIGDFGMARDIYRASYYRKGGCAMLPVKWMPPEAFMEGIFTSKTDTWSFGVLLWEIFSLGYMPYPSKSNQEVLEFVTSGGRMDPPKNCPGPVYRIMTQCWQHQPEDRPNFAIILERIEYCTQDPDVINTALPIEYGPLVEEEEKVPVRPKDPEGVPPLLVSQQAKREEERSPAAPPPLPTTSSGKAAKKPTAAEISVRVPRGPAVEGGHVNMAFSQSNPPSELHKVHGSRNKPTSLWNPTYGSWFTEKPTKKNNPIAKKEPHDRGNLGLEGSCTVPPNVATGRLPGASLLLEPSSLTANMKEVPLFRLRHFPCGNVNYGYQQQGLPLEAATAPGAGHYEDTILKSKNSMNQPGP

This test has as its target T1, wild-type human ALK (cytoplasmic domain, amino acids 1058-1620, N-terminal GST fusion) (Homo sapiens, UniProt Q9UM73).
T1 construct: The cytoplasmic domain (amino acids 1058-1620) of wild-type human ALK; GST (N); made in house; host or cells: SF9 insect cells
The test can be described thus: ALK Inhibition in Enzyme Assay (Lance TR-FRET kinase assay). In kind it is biochemical. An outline of the steps: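 Purified enzyme phosphorylated a biotinylated peptide substrate for 90 minutes at room temperature. Reactions were stopped with 20 mM EDTA in 50 mM Tris (pH 7.5), 100 mM NaCl, 0.05% BSA, 0.1% Tween-20. Phosphopeptide was detected by TR-FRET with SA-APC and Eu-W1024 anti-phosphotyrosine antibody PT66, excitation 320 nm.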
Background: In TR-FRET formats the signal depends on donor and acceptor labels being close together.
As usually defined, the IC50 is the concentration that inhibits the measured activity by half. Low readings indicate higher potency, high ones lower potency. `C=CCNS(=O)(=O)c1cccc(C(=O)/N=c2\[nH]c3ccc(CN4CCC(C(C)(C)O)CC4)cc3n2[C@H]2CC[C@H](C(N)=O)CC2)c1` [Example 235, (E)-3-(N-Allylsulfamoyl)-N-(1-(trans-4-carbamoylcyclohexyl)-6-((4-(2-hydroxypropan-2-yl)piperidin-1-yl)methyl)-1H-benzo[d]imidazol-2(3H)-ylidene)benzamide] displayed an IC50 of less than 50 nM.
`CC(C)NC(=O)[C@H]1CC[C@@H](n2/c(=N/C(=O)c3ccc(F)cc3)[nH]c3cnc(S(C)(=O)=O)cc32)CC1` [Example 236, (E)-4-Fluoro-N-(1-(cis-4-(isopropylcarbamoyl)cyclohexyl)-6-(methylsulfonyl)-1H-imidazo[4,5-c]pyridin-2(3H)-ylidene)benzamide] gave a half-maximal inhibitory concentration (IC50) of less than 50 nM.
The result for `COC(=O)Nc1nc2ccc(CN3CCCCC3)cc2n1[C@H]1CC[C@@H](C(=O)NC(C)C)CC1` [Example 237, Methyl 1-(cis-4-(isopropylcarbamoyl)cyclohexyl)-6-(piperidin-1-ylmethyl)-1H-benzo[d]imidazol-2-ylcarbamate] reads 100 to 1000 nM; that for `CC(C)NC(=O)[C@H]1CC[C@@H](n2/c(=N/C(=O)c3ccc(F)cc3)[nH]c3ccc(S(C)(=O)=O)cc32)CC1` [Example 238, (E)-4-Fluoro-N-(1-(cis-4-(isopropylcarbamoyl)cyclohexyl)-6-(methylsulfonyl)-1H-benzo[d]imidazol-2(3H)-ylidene)benzamide], less than 50 nM; that for `CC(C)NC(=O)[C@H]1CC[C@@H](n2/c(=N/C(=O)c3ccc(F)cc3)[nH]c3ccc(N4CCS(=O)(=O)CC4)cc32)CC1` [Example 239, (E)-4-Fluoro-N-(1-(cis-4-(isopropylcarbamoyl)cyclohexyl)-6-(thiomorpholine 1,1-dioxide)-1H-benzo[d]imidazol-2(3H)-ylidene)benzamide], less than 50 nM.
In turn, `N#C[C@]1(c2ccccn2)C[C@@H](n2/c(=N/C(=O)c3ccc(F)cc3)[nH]c3cnc(OCCN4CCCCC4)cc32)C1` [Example 240, (E)-N-(1-(trans-3-Cyano-3-(pyridin-2-yl)cyclobutyl)-6-(2-(piperidin-1-yl)ethoxy)-1H-imidazo[4,5-c]pyridin-2(3H)-ylidene)-4-fluorobenzamide] came in with an IC50 of 1000 to 5000 nM.
The result for `N#C[C@]1(c2ccccn2)C[C@H](n2/c(=N/C(=O)c3ccc(F)cc3)[nH]c3cnc(OCCN4CCCCC4)cc32)C1` [Example 241, (E)-N-(1-(cis-3-Cyano-3-(pyridin-2-yl)cyclobutyl)-6-(2-(piperidin-1-yl)ethoxy)-1H-imidazo[4,5-c]pyridin-2(3H)-ylidene)-4-fluorobenzamide] reads 100 to 1000 nM; that for `CC(C)(O)C1CCN(Cc2ccc3[nH]/c(=N\C(=O)c4ccc(F)cc4)n([C@H]4CC[C@]5(CC4)NC(=O)NC5=O)c3c2)CC1` [Example 242, (E)-N-(1-((5S,8S)-2,4-Dioxo-1,3-diazaspiro[4.5]decan-8-yl)-6-((4-(2-hydroxypropan-2-yl)piperidin-1-yl)methyl)-1H-benzo[d]imidazol-2(3H)-ylidene)-4-fluorobenzamide], 100 to 1000 nM.
Molecule `CC(C)(O)C1CCN(Cc2ccc3[nH]/c(=N\C(=O)c4ccc(F)cc4)n([C@H]4CC[C@@H](C(=O)NC5CNC5)CC4)c3c2)CC1` [Example 243] gave an IC50 of less than 50 nM.
The result for `C=CCNS(=O)(=O)c1cccc(C(=O)/N=c2\[nH]c3cnc(OCCN4CCCCC4)cc3n2[C@H]2CC[C@H](C(N)=O)CC2)c1` [Example 244, (E)-3-(N-Allylsulfamoyl)-N-(1-(trans-4-carbamoylcyclohexyl)-6-(2-(piperidin-1-yl)ethoxy)-1H-imidazo[4,5-c]pyridin-2(3H)-ylidene)benzamide] reads 50 to 100 nM.
